# Reference: US9738634B2, “Heterocyclic amide compound and herbicide” (SYNGENTA PARTICIPATIONS AG, priority 2013, dated 2017)
# What was measured:
# Assay type in all cases: in vivo
# barnyard grass [1] = assay: Test Example 1: weedkilling efficacy, preemergent weed treatment in the submerged state; A: barnyard grass; conditions: treatment dosage 252 g/ha
# Procedure, shortened: (§1)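 Visual scores against set criteria were taken 3 weeks after treatment. Compounds, as diluted emulsions at specified g/ha, went onto the water surface of 4 cm-flooded alluvial soil pots on the day weeds were sown and 2.5-leaf rice was transplanted; greenhouse held 25–30 °C.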
# bulrush [2] = assay: Test Example 1: weedkilling efficacy, preemergent weed treatment in the submerged state; B: bulrush; conditions: treatment dosage 252 g/ha
# Procedure, shortened: as §1
# oval-leafed pondweed [3] = assay: Test Example 1: weedkilling efficacy, preemergent weed treatment in the submerged state; C: oval-leafed pondweed; conditions: treatment dosage 252 g/ha
# Procedure, shortened: as §1
# transplanted rice = assay: Test Example 1: preemergent weed treatment in the submerged state, effect on crop; a: transplanted rice; conditions: treatment dosage 252 g/ha
# Procedure, shortened: as §1
# barnyard grass [4] = assay: Test Example 2: weedkilling efficacy, growth period weed treatment in the submerged state; A: barnyard grass; conditions: treatment dosage 252 g/ha
# Procedure, shortened: (§2)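 Barnyard grass, bulrush and oval-leafed pondweed sown in alluvial soil under 4 cm flooding, greenhouse 25 to 30° C. At 1-2 leaf stage, water-diluted emulsion applied to the water surface at stated g/ha dosages; effects scored 3 weeks later.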
# bulrush [5] = assay: Test Example 2: weedkilling efficacy, growth period weed treatment in the submerged state; B: bulrush; conditions: treatment dosage 252 g/ha
# Procedure, shortened: as §2
# oval-leafed pondweed [6] = assay: Test Example 2: weedkilling efficacy, growth period weed treatment in the submerged state; C: oval-leafed pondweed; conditions: treatment dosage 252 g/ha
# Procedure, shortened: as §2
# crabgrass [7] = assay: Test Example 3: weedkilling efficacy through soil treatment; D: crabgrass; conditions: treatment dosage 315 g/ha
# Procedure, shortened: (§3)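 Crop and weed responses were judged three weeks after a uniform surface spray of the water-diluted emulsion at the given g/ha rate. Seeds sat beneath about 1.5 cm of sterilized diluvial soil, and boxes stood in a greenhouse at 25 to 30° C.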
# green foxtail [8] = assay: Test Example 3: weedkilling efficacy through soil treatment; E: green foxtail; conditions: treatment dosage 315 g/ha
# Procedure, shortened: as §3
# wild oat [9] = assay: Test Example 3: weedkilling efficacy through soil treatment; G: wild oat; conditions: treatment dosage 315 g/ha
# Procedure, shortened: as §3
# black-grass [10] = assay: Test Example 3: weedkilling efficacy through soil treatment; H: black-grass; conditions: treatment dosage 315 g/ha
# Procedure, shortened: as §3
# Italian ryegrass [11] = assay: Test Example 3: weedkilling efficacy through soil treatment; I: Italian ryegrass; conditions: treatment dosage 315 g/ha
# Procedure, shortened: as §3
# Indian mallow [12] = assay: Test Example 3: weedkilling efficacy through soil treatment; K: Indian mallow; conditions: treatment dosage 315 g/ha
# Procedure, shortened: as §3
# redroot pigweed [13] = assay: Test Example 3: weedkilling efficacy through soil treatment; L: redroot pigweed; conditions: treatment dosage 315 g/ha
# Procedure, shortened: as §3
# fig-leafed goosefoot [14] = assay: Test Example 3: weedkilling efficacy through soil treatment; M: fig-leafed goosefoot; conditions: treatment dosage 315 g/ha
# Procedure, shortened: as §3
# catchweed [15] = assay: Test Example 3: weedkilling efficacy through soil treatment; O: catchweed; conditions: treatment dosage 315 g/ha
# Procedure, shortened: as §3
# corn [16] = assay: Test Example 3: soil treatment, effect on crop; c: corn; conditions: treatment dosage 315 g/ha
# Procedure, shortened: as §3
# soybean [17] = assay: Test Example 3: soil treatment, effect on crop; d: soybean; conditions: treatment dosage 315 g/ha
# Procedure, shortened: as §3
# wheat [18] = assay: Test Example 3: soil treatment, effect on crop; e: wheat; conditions: treatment dosage 315 g/ha
# Procedure, shortened: as §3
# beet [19] = assay: Test Example 3: soil treatment, effect on crop; f: beet; conditions: treatment dosage 315 g/ha
# Procedure, shortened: as §3
# crabgrass [20] = assay: Test Example 4: weedkilling efficacy by foliar treatment; D: crabgrass; conditions: treatment dosage 315 g/ha
# Procedure, shortened: (§4)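 Seeds are spot-sown into sterilized diluvial soil and covered with about 1.5 cm of soil. After 14 days' greenhouse growth at 25 to 30° C, plants are sprayed on stems and leaves with diluted emulsion at the stated g/ha rate, then scored at 3 weeks.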
# green foxtail [21] = assay: Test Example 4: weedkilling efficacy by foliar treatment; E: green foxtail; conditions: treatment dosage 315 g/ha
# Procedure, shortened: as §4
# wild oat [22] = assay: Test Example 4: weedkilling efficacy by foliar treatment; G: wild oat; conditions: treatment dosage 315 g/ha
# Protocol: Testing of Weedkilling Efficacy by Foliar Treatment
# Sterilized diluvial soil was introduced into 21 cm long, 13 cm wide, 7 cm deep plastic boxes, and seeds of crabgrass, green foxtail, barnyard grass, wild oat, black-grass, Italian ryegrass, common wind-grass, Indian mallow, redroot pigweed, fig-leafed goosefoot, chickweed, catchweed, birds-eye speedwell, corn, soybean, rice, wheat, beet and rapeseed were each spot-sown, and covered with about 1.5 cm of soil, then the plants were grown in a greenhouse at 25 to 30° C.
# After they had grown for 14 days, emulsions of compounds of the present invention prepared according to compounding example 2 were diluted with water to give the specified dosages, and applied uniformly onto the stem and leaf parts with a small sprayer. 3 weeks after the pesticide treatment the effect on each type of plant was investigated on the basis of the assessment criteria of test example 1.
# A: barnyard grass, B: bulrush, C: oval-leafed pondweed, D: crabgrass, E: green foxtail, F: barnyard grass, G: wild oat, H: black-grass, I: Italian ryegrass, J: common wind-grass, K: Indian mallow, L: redroot pigweed, M: fig-leafed goosefoot, N: chickweed, O: catchweed, p: birds-eye speedwell, a: transplanted rice, b: directly sown rice, c: corn, d: soybean, e: wheat, f: beet, g: rapeseed
# Further, pesticide dosage (g/ha) indicates the concentration regulated such that treatment was with only the stated number of grams (g), when calculated per hectare (ha).
# black-grass [23] = assay: Test Example 4: weedkilling efficacy by foliar treatment; H: black-grass; conditions: treatment dosage 315 g/ha
# Procedure, shortened: as §4
# Italian ryegrass [24] = assay: Test Example 4: weedkilling efficacy by foliar treatment; I: Italian ryegrass; conditions: treatment dosage 315 g/ha
# Procedure, shortened: as §4
# Indian mallow [25] = assay: Test Example 4: weedkilling efficacy by foliar treatment; K: Indian mallow; conditions: treatment dosage 315 g/ha
# Procedure, shortened: as §4
# redroot pigweed [26] = assay: Test Example 4: weedkilling efficacy by foliar treatment; L: redroot pigweed; conditions: treatment dosage 315 g/ha
# Procedure, shortened: as §4
# fig-leafed goosefoot [27] = assay: Test Example 4: weedkilling efficacy by foliar treatment; M: fig-leafed goosefoot; conditions: treatment dosage 315 g/ha
# Procedure, shortened: as §4
# chickweed = assay: Test Example 4: weedkilling efficacy by foliar treatment; N: chickweed; conditions: treatment dosage 315 g/ha
# Procedure, shortened: as §4
# catchweed [28] = assay: Test Example 4: weedkilling efficacy by foliar treatment; O: catchweed; conditions: treatment dosage 315 g/ha
# Procedure, shortened: as §4
# directly sown rice = assay: Test Example 4: foliar treatment, effect on crop; b: directly sown rice; conditions: treatment dosage 315 g/ha
# Procedure, shortened: as §4
# corn [29] = assay: Test Example 4: foliar treatment, effect on crop; c: corn; conditions: treatment dosage 315 g/ha
# Procedure, shortened: as §4
# soybean [30] = assay: Test Example 4: foliar treatment, effect on crop; d: soybean; conditions: treatment dosage 315 g/ha
# Procedure, shortened: as §4
# wheat [31] = assay: Test Example 4: foliar treatment, effect on crop; e: wheat; conditions: treatment dosage 315 g/ha
# Procedure, shortened: as §4
# beet [32] = assay: Test Example 4: foliar treatment, effect on crop; f: beet; conditions: treatment dosage 315 g/ha
# Procedure, shortened: as §4
smiles,measurement,setting,value
CC1=C(c2ccccc2)C(=O)N(C(C)(C)C(=O)Nc2ccnc(C(F)(F)F)c2)CO1 [B-4-06],A (barnyard grass) weedkilling efficacy grade,barnyard grass [1],"5 (weed kill ratio 90% or more, (practically complete withering))"
same,B (bulrush) weedkilling efficacy grade,bulrush [2],"5 (weed kill ratio 90% or more, (practically complete withering))"
same,C (oval-leafed pondweed) weedkilling efficacy grade,oval-leafed pondweed [3],"5 (weed kill ratio 90% or more, (practically complete withering))"
same,a (transplanted rice) effect on crop grade,transplanted rice,0 (weed kill ratio 5% or less (practically no effect))
same,A (barnyard grass) weedkilling efficacy grade,barnyard grass [4],"4 (weed kill ratio 70% or more, less than 90%)"
same,B (bulrush) weedkilling efficacy grade,bulrush [5],"5 (weed kill ratio 90% or more, (practically complete withering))"
same,C (oval-leafed pondweed) weedkilling efficacy grade,oval-leafed pondweed [6],"5 (weed kill ratio 90% or more, (practically complete withering))"
same,D (crabgrass) weedkilling efficacy grade,crabgrass [7],"5 (weed kill ratio 90% or more, (practically complete withering))"
same,E (green foxtail) weedkilling efficacy grade,green foxtail [8],"5 (weed kill ratio 90% or more, (practically complete withering))"
same,G (wild oat) weedkilling efficacy grade,wild oat [9],"5 (weed kill ratio 90% or more, (practically complete withering))"
same,H (black-grass) weedkilling efficacy grade,black-grass [10],"5 (weed kill ratio 90% or more, (practically complete withering))"
same,I (Italian ryegrass) weedkilling efficacy grade,Italian ryegrass [11],"5 (weed kill ratio 90% or more, (practically complete withering))"
same,K (Indian mallow) weedkilling efficacy grade,Indian mallow [12],"1 (weed kill ratio 5% or more, less than 20%)"
same,L (redroot pigweed) weedkilling efficacy grade,redroot pigweed [13],"3 (weed kill ratio 40% or more, less than 70%)"
same,M (fig-leafed goosefoot) weedkilling efficacy grade,fig-leafed goosefoot [14],"4 (weed kill ratio 70% or more, less than 90%)"
same,O (catchweed) weedkilling efficacy grade,catchweed [15],"4 (weed kill ratio 70% or more, less than 90%)"
same,c (corn) effect on crop grade,corn [16],"2 (weed kill ratio 20% or more, less than 40%)"
same,d (soybean) effect on crop grade,soybean [17],0 (weed kill ratio 5% or less (practically no effect))
same,e (wheat) effect on crop grade,wheat [18],"3 (weed kill ratio 40% or more, less than 70%)"
same,f (beet) effect on crop grade,beet [19],"4 (weed kill ratio 70% or more, less than 90%)"
same,D (crabgrass) weedkilling efficacy grade,crabgrass [20],"5 (weed kill ratio 90% or more, (practically complete withering))"
same,E (green foxtail) weedkilling efficacy grade,green foxtail [21],"5 (weed kill ratio 90% or more, (practically complete withering))"
same,G (wild oat) weedkilling efficacy grade,wild oat [22],"5 (weed kill ratio 90% or more, (practically complete withering))"
same,H (black-grass) weedkilling efficacy grade,black-grass [23],"5 (weed kill ratio 90% or more, (practically complete withering))"
same,I (Italian ryegrass) weedkilling efficacy grade,Italian ryegrass [24],"5 (weed kill ratio 90% or more, (practically complete withering))"
same,K (Indian mallow) weedkilling efficacy grade,Indian mallow [25],"3 (weed kill ratio 40% or more, less than 70%)"
same,L (redroot pigweed) weedkilling efficacy grade,redroot pigweed [26],"4 (weed kill ratio 70% or more, less than 90%)"
same,M (fig-leafed goosefoot) weedkilling efficacy grade,fig-leafed goosefoot [27],"4 (weed kill ratio 70% or more, less than 90%)"
same,N (chickweed) weedkilling efficacy grade,chickweed,"3 (weed kill ratio 40% or more, less than 70%)"
same,O (catchweed) weedkilling efficacy grade,catchweed [28],"4 (weed kill ratio 70% or more, less than 90%)"
same,b (directly sown rice) effect on crop grade,directly sown rice,"5 (weed kill ratio 90% or more, (practically complete withering))"
same,c (corn) effect on crop grade,corn [29],"5 (weed kill ratio 90% or more, (practically complete withering))"
same,d (soybean) effect on crop grade,soybean [30],"4 (weed kill ratio 70% or more, less than 90%)"
same,e (wheat) effect on crop grade,wheat [31],"1 (weed kill ratio 5% or more, less than 20%)"
same,f (beet) effect on crop grade,beet [32],"3 (weed kill ratio 40% or more, less than 70%)"
